In brackets after ≈: the same amount, converted by molar mass. Read-outs that look alike come from different tables or passages of the source.
How the values were obtained:
[1] = Solubility in gastric juice or intestinal juice model fluid (precipitation method using DMSO); assay type: physicochemical; conditions: room temperature
How it was run: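 Dissolved amount (μg/mL) quantified by UV of filtrate versus pre-made calibration curves. Precipitation approach: DMSO solutions spiked into pH 1.2 (JP 1st fluid) or pH 6.8 (JP 2nd fluid) medium, shaken at room temperature for 24 h before insolubles were filtered off.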

[2] = test system: lipoprotein lipase (LPL) gene; assay: LPL mRNA elevating action (RT-PCR quantification of LPL mRNA in C2Cl2 cells); assay type: cell-based, mouse; conditions: Mus musculus, 24 h, compound 10 μM, ratio relative to the amount of LPL mRNA in cells with DMSO only, read-out: Rate of increase in LPL mRNA
How it was run: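 Read-out is LPL mRNA relative to vehicle (DMSO = 1), measured by reverse transcription and 20-cycle real-time PCR. Cells were the mouse striated-muscle line C2Cl2, treated 24 h with 10 μM compound in DMEM containing 10% FBS.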

[3] = pH 1.2, simulated gastric fluid, kinetic from dmso stock, 1st fluid for Disintegration Test of Japanese Pharmacopoeia (pH: 1.2), read-out: Solubility (μg/mL) 1st fluid
[4] = pH 6.8, kinetic from dmso stock, 2nd fluid for Disintegration Test of Japanese Pharmacopoeia (pH: 6.8), read-out: Solubility (μg/mL) 2nd fluid

| SMILES | melting point | solubility at 24 h [1, 3] | solubility at 24 h [1, 4] | fold induction at 10 µM [2] |
| --- | --- | --- | --- | --- |
| COc1cc(-c2cnc(C3CCC(F)(F)CC3)[nH]2)ccc1OCc1ncc(C(F)(F)F)cc1F [Example 323] | 157 to 159 °C | 78.3 µg/mL (≈ 161 µM) | 17 µg/mL (≈ 35 µM) | 1.72 |
| COc1cc(OCc2c(F)cc(C(F)(F)F)c[n+]2[O-])ccc1-c1[nH]c(-c2ccc(F)nc2)nc1Cl [Example 317] | 105 to 110 °C | 69.1 µg/mL (≈ 135 µM) | 9.3 µg/mL (≈ 18.1 µM) | 2.9 |
| COc1cc(-c2[nH]c(C3CC(F)(F)C3)nc2Br)ccc1OCc1ccc(C(F)(F)F)cn1 [Example 190] | 151 to 157 °C | 92.5 µg/mL (≈ 178 µM) | 2 µg/mL (≈ 3.86 µM) | 3.58 |
| COc1cc(OCc2ccc(C(F)(F)F)cn2)ccc1-c1c[nH]c(-c2cccc(N3CCCC3)n2)n1 [Example 40] | 100 to 108 °C | 6.9 µg/mL (≈ 13.9 µM) | 2.8 µg/mL (≈ 5.65 µM) | 0.93 |
| COc1cc(OCc2ncc(C(F)(F)F)cc2Br)ccc1-c1cnc(-c2ccc(F)nc2)[nH]1 [Example 133] | 153 to 170 °C | 29.3 µg/mL (≈ 56 µM) | 2 µg/mL (≈ 3.82 µM) | 2.43 |
| COc1cc(OCc2ncccc2C(F)(F)F)ccc1-c1[nH]c(-c2ccc(Cl)nc2)nc1Br [Example 253] | 176 to 186 °C | 5.9 µg/mL (≈ 10.9 µM) | 1 µg/mL (≈ 1.85 µM) | 2.62 |
| COc1cc(OCc2cncc(C(F)(F)F)c2)ccc1-c1[nH]c(-c2ccc(F)nc2)nc1Br [Example 270] | 176 to 179 °C | 9.1 µg/mL (≈ 17.4 µM) | < 0.4 µg/mL | 3.81 |
| COCCOc1cc(OCc2ccc(C(F)(F)F)cn2)ccc1-c1nc(-c2ccc(Cl)nc2)[nH]c1Cl [Example 218] | 170 to 172 °C | 0.4 µg/mL (≈ 0.742 µM) | < 9.6 µg/mL | 1.21 |
| COc1c(OCc2ccc(C(F)(F)F)cn2)ccc(-c2c[nH]c(C3CCC(F)(F)CC3)n2)c1OC [Example 57] | 155 to 157 °C | > 99 µg/mL | 0.8 µg/mL (≈ 1.61 µM) | 3.72 |
| COc1cc(OCc2cc(C(C)C)no2)ccc1-c1cnc(-c2ccc(F)nc2)[nH]1 [Example 322] | 227 to 232 °C | 72 µg/mL (≈ 176 µM) | 1.3 µg/mL (≈ 3.18 µM) | 1.55 |
| COc1cc(-c2[nH]c(C3CC(F)(F)C3)nc2Cl)ccc1OCc1ccc(C(F)(F)F)nc1 [Example 179] | 170 to 174 °C | 25.8 µg/mL (≈ 54.5 µM) | 2.3 µg/mL (≈ 4.85 µM) | 2.66 |
| COc1cc(OCc2ccc(C(F)(F)F)cn2)ccc1-c1c(Br)nc(-c2ccc(Cl)nc2)n1C [Example 301] | 125 to 127 °C | 15.1 µg/mL (≈ 27.3 µM) | < 0.4 µg/mL | 2.99 |
| COc1cc(OCc2ccc(C(F)(F)F)cn2)ccc1-c1[nH]c(C2CCCC(F)(F)C2)nc1Cl (stereo not drawn) [Example 182] | 162 to 164 °C | 95.5 µg/mL (≈ 190 µM) | 1.9 µg/mL (≈ 3.79 µM) | 3.41 |
| COc1cc(OCc2ccc(C(F)(F)F)nc2)ccc1-c1[nH]c(C2CCC(F)(F)CC2)nc1C [Example 6] | 167 to 169 °C | 91.5 µg/mL (≈ 190 µM) | 47 µg/mL (≈ 97.6 µM) | 4.44 |
| COc1cc(OCc2ncc(C)cc2C)ccc1-c1nc(-c2ccc(F)nc2)[nH]c1Cl [Example 206] | 109 to 124 °C | > 88 µg/mL | 7 µg/mL (≈ 15.9 µM) | 2.75 |
| COc1cc(OCc2ccc(C(F)(F)F)cn2)ccc1-c1c[nH]c(C2CCCCC2)n1 [Example 77] | 226 to 228 °C | 8.7 µg/mL (≈ 20.2 µM) | 1.3 µg/mL (≈ 3.01 µM) | 3.11 |
| COc1cc(OC(C)c2cccc(C(F)(F)F)n2)ccc1-c1[nH]c(-c2ccc(F)nc2)nc1Cl (stereo not drawn) [Example 237] | 170 to 175 °C | 7.1 µg/mL (≈ 14.4 µM) | < 1.8 µg/mL | 2.82 |
| COc1cc(-c2nc(-c3ccc(F)nc3)[nH]c2Cl)ccc1OCc1ncccc1F [Example 212] | 161 to 163 °C | 76.9 µg/mL (≈ 179 µM) | 0.5 µg/mL (≈ 1.17 µM) | 2.22 |
| COc1cc(OCc2ccc(C(F)(F)F)cn2)ccc1-c1c(C)nc(-c2ccc(Cl)nc2)n1C [Example 165] | 152 to 154 °C | 96 µg/mL (≈ 196 µM) | 2.1 µg/mL (≈ 4.3 µM) | 3.34 |
| COCCn1c(-c2ccc(F)nc2)nc(Cl)c1-c1ccc(OCc2ccc(C(F)(F)F)cn2)cc1OC [Example 297] | 131 to 136 °C | 89.8 µg/mL (≈ 167 µM) | 7 µg/mL (≈ 13 µM) | 2.76 |
| COc1cc(OCc2ccc(C(F)(F)F)cn2)ccc1-c1nc(-c2ccc(Cl)nc2)n(CC2CC2)c1Cl [Example 294] | 123 to 126 °C | 104 µg/mL (≈ 189 µM) | 2.4 µg/mL (≈ 4.37 µM) | 2.42 |
| COc1cc(-c2[nH]c(C3CCCC(F)(F)C3)nc2Br)ccc1OCc1ccc(C(F)(F)F)cn1 (stereo not drawn) [Example 170] | 158 to 160 °C | 105 µg/mL (≈ 191 µM) | 1.3 µg/mL (≈ 2.38 µM) | 3.36 |
| COc1cc(OCc2ccc(C(F)(F)F)cn2)ccc1-c1c[nH]c(-c2ccc(S(C)(=O)=O)nc2)n1 [Example 38] | 213 to 214 °C | 60.5 µg/mL (≈ 120 µM) | 0.9 µg/mL (≈ 1.78 µM) | 2.25 |
| COc1cc(OCc2ccncn2)ccc1-c1c[nH]c(-c2ccc(Cl)nc2)n1 [Example 45] | 221 to 224 °C | 27.8 µg/mL (≈ 70.6 µM) | < 0.3 µg/mL | 1.09 |
| COc1cc(OCc2ccc(C(F)(F)F)cn2)ccc1-c1c(Cl)nc(-c2ccc(Cl)nc2)n1CC1CC1 [Example 295] | 130 to 132 °C | 18.3 µg/mL (≈ 33.3 µM) | 1.1 µg/mL (≈ 2 µM) | 4.06 |
| COc1cc(OC(C)c2ccc(C(F)(F)F)nc2)ccc1-c1[nH]c(-c2ccc(F)nc2)nc1Cl (stereo not drawn) [Example 239] | 148 to 150 °C | 8.8 µg/mL (≈ 17.9 µM) | 15.6 µg/mL (≈ 31.7 µM) | 2.39 |

Second part, led by results:

| melting point | solubility at 24 h [1, 3] | solubility at 24 h [1, 4] | SMILES | fold induction at 10 µM [2] |
| --- | --- | --- | --- | --- |
| 172 to 174 °C | 54.1 µg/mL (≈ 115 µM) | 3.4 µg/mL (≈ 7.21 µM) | COc1cc(OCc2ncc(C(F)(F)F)cc2F)ccc1-c1[nH]c(C2CC(F)(F)C2)nc1C [Example 399] | 4.68 |
| 142 to 147 °C | 83.2 µg/mL (≈ 164 µM) | < 0.4 µg/mL | COc1cc(-c2[nH]c(C3CCC(F)(F)C3)nc2Cl)ccc1OCc1ncc(C(F)(F)F)cc1F (stereo not drawn) [Example 347] | 3.28 |
| 179 to 184 °C | 86.4 µg/mL (≈ 189 µM) | 1.2 µg/mL (≈ 2.62 µM) | COc1cc(-c2[nH]c(C(C)(C)C)nc2Cl)ccc1OCc1ncc(C(F)(F)F)cc1F [Example 384] | 1.84 |
| 192 to 195 °C | 97.1 µg/mL (≈ 181 µM) | 0.6 µg/mL (≈ 1.12 µM) | COc1cc(OCc2ncc(C(F)(F)F)cc2F)ccc1-c1[nH]c(C2CC(F)(F)C2)nc1Br [Example 400] | 4.49 |
| 167 to 172 °C | 35.9 µg/mL (≈ 79.7 µM) | < 0.3 µg/mL | Fc1ccc(-c2ncc(-c3ccc(OCc4ncc(C(F)(F)F)cc4F)cc3F)[nH]2)cn1 [Example 369] | 1.26 |
| 141 to 144 °C | 79.9 µg/mL (≈ 189 µM) | 72.9 µg/mL (≈ 172 µM) | COc1cc(OCc2ncc(C(F)(F)F)cc2F)ccc1-c1cnc(C(C)(C)C)[nH]1 [Example 379] | 2.87 |
| 165 to 167 °C | 1.1 µg/mL (≈ 2.28 µM) | < 0.3 µg/mL | COc1cc(OCc2ccc(C(F)(F)F)nc2)ccc1-c1nc(-c2ccc(F)nc2)n(C)c1C#N [Example 410] | 0.42 |
| 159 to 162 °C | 88.3 µg/mL (≈ 194 µM) | 1.2 µg/mL (≈ 2.63 µM) | COc1cc(-c2[nH]c(C3CCC3)nc2Cl)ccc1OCc1ncc(C(F)(F)F)cc1F [Example 374] | 2.6 |
| 76 to 91 °C | 49.5 µg/mL (≈ 107 µM) | 21.6 µg/mL (≈ 46.6 µM) | COc1cc(OCc2ncc(C(F)(F)F)cc2F)ccc1-c1cnc(CCC(F)(F)F)[nH]1 [Example 390] | 2.09 |
| 212 to 219 °C | 1.3 µg/mL (≈ 2.77 µM) | 1.9 µg/mL (≈ 4.05 µM) | COc1cc(OCc2ccc(C(F)(F)F)nc2)ccc1-c1[nH]c(-c2ccc(F)nc2)nc1C#N [Example 409] | 1.34 |
| 131 to 135 °C | 84.7 µg/mL (≈ 191 µM) | 2.1 µg/mL (≈ 4.73 µM) | COc1cc(OCc2ncc(C(F)(F)F)cc2F)ccc1-c1[nH]c(C(C)C)nc1Cl [Example 385] | 3.18 |
| 161 to 165 °C (dec.) | 81.6 µg/mL (≈ 185 µM) | 7.5 µg/mL (≈ 17 µM) | COc1cc(-c2[nH]c(C3CC3)nc2Cl)ccc1OCc1ncc(C(F)(F)F)cc1F [Example 378] | 1.24 |
| 129 to 131 °C | 6.5 µg/mL (≈ 10.1 µM) | 0.9 µg/mL (≈ 1.4 µM) | CCOC(C)n1c(-c2ccc(F)nc2)nc(-c2ccc(OCc3ccc(C(F)(F)F)nc3)cc2OC)c1I (stereo not drawn) [Example 330] | 1.88 |

Source: patent publication US10570117B2, “Phenylimidazole compound” (Otsuka Pharmaceutical Factory, Inc., priority 2015, dated 2020)
